US20110171294A1, “Enzyme composition and application thereof in the treatment of pancreatic insufficiency” (DSM IP ASSETS B.V., priority 2008, published 2011)
Non-standard residues stand in square brackets, D forms with d. Residues, ends and D or L forms follow the SMILES beside them. *: point of attachment. Sta = CC(C)C[C@H](N)[C@@H](O)CC(=O)O; Isovaleryl = CC(C)CC(=O)*

How the values were obtained:
[1] = system: proline specific protease; test: Effect of pepstatin on the proline specific protease; type: biochemical, Aspergillus niger; conditions: pepstatin 1.67 microgram/ml
Description: Prerequisite for a successful enzyme therapy according to the present application is an efficient degradation of dietary proteinaceous material in the stomach. […] Citrate/HCl buffers of 0.2 mol/l were used for obtaining the required acid pH conditions. […] Residual activities of the proline specific protease were measured kinetically at 405 nm using the synthetic substrates Ala-Ala-Pro-pNA (Bachem, Switzerland). […] Absorbance was measured kinetically for 10 min at 405 nm at 30° C. making use of a TECAN Genios MTP Reader (Salzburg, Vienna).

Sodium caseinate = test: Casein hydrolysis under simulated stomach conditions (visual impression, di-/tripeptides, free amino acids); type: biochemical; conditions: 2.5 mg/ml caseinate suspension, pH 4.0, 37 degrees C., 0.25 mg/ml of each enzyme

Compound	inhibitory effect on the proline specific protease [1]	Visual impression after 45″ (Sodium caseinate)	Visual impression after 90″ (Sodium caseinate)
CC(C)CC(=O)N[C@H](C(=O)N[C@H](C(=O)N[C@@H](CC(C)C)[C@@H](O)CC(=O)N[C@@H](C)C(=O)N[C@@H](CC(C)C)[C@@H](O)CC(=O)O)C(C)C)C(C)C [pepstatin, Pepstatin] (Isovaleryl-VV[Sta]A[Sta]-OH)	no inhibitory effect	–	–
Pepsin: gastric aspartic endoprotease (EC 3.4.23.1) from porcine stomach mucosa, Sigma	–	turbid	clear
